Experimental data from paper PMC7311426, “An amphipathic peptide with antibiotic activity against multidrug-resistant Gram-negative bacteria” (Nature Communications, 2020).
Residues, ends and D or L forms follow the SMILES beside them.

Assay: in vivo
Conditions: for level at 4 h / level at 8 h / level at 0.5 h / level at 1 h / level at 3 h / level at 12 h: Cross species PK, concentration (Fig 6 source data)
Protocol: The studies were performed at Fidelta Ltd, Croatia (mice), under review by the institutional ethics committee (CARE-Zg), and Covance Laboratories UK and Muenster Germany (cynomolgus monkey and minipig) in accordance with the requirements of the Animals (Scientific Procedures) Act 1989 and a maintained local ethical review. All studies were contracted by Adenium Biotech ApS. Mice were housed in polysulfone cages with an acclimatization period of 7 days prior to experiments with air temperature maintained at 22 °C with 55% humidity and light–dark cycles of 12 h light. Cynomolgus monkeys of age range 4–7 years were selected, tested for health, acclimatized for 2 weeks, and housed in single-animal climate controlled stainless-steel cages with a minimum of 8 air changes per hour with air temperature at 19–25 °C and relative humidity 40–70%, and light–dark cycles of 12 h light. Minipigs of age range 4–6 months were selected, tested for health, acclimatized for 2 weeks, and housed in single-animal pens with 15–20 air changes per hour with air temperature at 22–26 °C with light–dark cycles of 12 h light.
Mouse, monkey, and minipig i.v. 2-h infusion: AA139 formulated in Ringer’s acetate was administered intravenously to CD1 mice, cynomolgus monkeys (Macaca fascicularis) and Göttingen A/S minipigs (Ellegaard Göttingen, Denmark) by continuous infusion over 2 h (minipig under anesthesia). Individual dose volumes were based on individual body weight. Blood samples were collected at 0.5, 1, 2, 3, 4, 8, 10, and 12 h after the start of the infusion (n = 6 mice, male and female combined; n = 2 monkeys, one male and one female; n = 2 minipigs, one male and one female). Bioanalytical analysis was performed by SPE followed by LC–MS/MS. The method was validated for an AA139 concentration range of 43.4–21,700 ng mL^−1. Pharmacokinetic parameters were calculated by standard non-compartmental analysis (NCA) using Phoenix WinNonlin version 6.2. The studies were conducted in compliance with Good Laboratory Practice (GLP) regulations.

[1] = Göttingen, minipig, in vivo, iv, minipig 2h i.v. infusion, replicate 1
[2] = Göttingen, minipig, in vivo, iv, minipig 2h i.v. infusion, replicate 2
[3] = both, Göttingen, minipig, in vivo, iv, 10 mg kg-1
[4] = both, cynomolgus monkey, in vivo, iv, 10 mg kg-1
[5] = cynomolgus monkey, in vivo, iv, monkey 2h i.v. infusion, replicate 1
[6] = cynomolgus monkey, in vivo, iv, monkey 2h i.v. infusion, replicate 2
[7] = cynomolgus monkey, in vivo, iv, monkey 2h i.v. infusion, replicate 3
[8] = cynomolgus monkey, in vivo, iv, monkey 2h i.v. infusion, replicate 4

`CC(C)[C@@H]1NC(=O)[C@H](Cc2ccc(O)cc2)NC(=O)[C@H](Cc2c[nH]c3ccccc23)NC(=O)[C@@H](NC(=O)[C@H](Cc2ccccc2)NC(=O)CN)CSSC[C@@H](C(=O)N[C@@H](CC(N)=O)C(=O)O)NC(=O)[C@H](CCCNC(=N)N)NC(=O)[C@H](CCCNC(=N)N)NC(=O)[C@H](Cc2ccc(O)cc2)NC(=O)[C@@H]2CSSC[C@H](NC1=O)C(=O)N[C@@H](C)C(=O)N[C@@H](CCCNC(=N)N)C(=O)N[C@@H](CCCNC(=N)N)C(=O)N[C@@H](CC(N)=O)C(=O)NCC(=O)N[C@@H](C)C(=O)N[C@@H](CCCNC(=N)N)C(=O)N[C@@H](C(C)C)C(=O)N2` [AA139] (HELM PEPTIDE1{G.F.C.W.Y.V.C.A.R.R.N.G.A.R.V.C.Y.R.R.C.N}$PEPTIDE1,PEPTIDE1,3:R3-20:R3|PEPTIDE1,PEPTIDE1,7:R3-16:R3$$$V2.0) showed a level at 4 h [1] of 2850 ng/mL, a level at 4 h [2] of 3110 ng/mL and a level at 8 h [1] of 1510 ng/mL. The level at 8 h [2] was 1240 ng/mL, the Vd [3] was 1.2 L/kg and the half-life [3] was 3.1 h. For the same molecule, the level at 0.5 h (both, Göttingen, minipig, in vivo, iv, minipig 2h i.v. infusion, time 0.5 h, replicate 1) was 4830 ng/mL, the level at 1 h (both, Göttingen, minipig, in vivo, iv, minipig 2h i.v. infusion, time 1 h, replicate 2) was 6780 ng/mL and the level at 3 h (both, Göttingen, minipig, in vivo, iv, minipig 2h i.v. infusion, replicate 1) was 4100 ng/mL. The level at 3 h (both, Göttingen, minipig, in vivo, iv, minipig 2h i.v. infusion, replicate 2) was 5080 ng/mL, the AUC(0-inf) [4] was 40800 ng·h/mL and the Vd [4] was 0.87 L/kg. The half-life [4] was 2.4 h, the level at 0.5 h (both, cynomolgus monkey, in vivo, iv, monkey 2h i.v. infusion, time 0.5 h, replicate 2) was 6540 ng/mL and the level at 0.5 h (both, cynomolgus monkey, in vivo, iv, monkey 2h i.v. infusion, time 0.5 h, replicate 3) was 7630 ng/mL. It also gave a level at 0.5 h (both, cynomolgus monkey, in vivo, iv, monkey 2h i.v. infusion, time 0.5 h, replicate 4) of 13500 ng/mL, a level at 1 h (both, cynomolgus monkey, in vivo, iv, monkey 2h i.v. infusion, time 1 h, replicate 1) of 9000 ng/mL and a level at 1 h (both, cynomolgus monkey, in vivo, iv, monkey 2h i.v. infusion, time 1 h, replicate 2) of 9340 ng/mL. The level at 1 h (both, cynomolgus monkey, in vivo, iv, monkey 2h i.v. infusion, time 1 h, replicate 3) was 8480 ng/mL, the level at 3 h (both, cynomolgus monkey, in vivo, iv, monkey 2h i.v. infusion, replicate 1) was 5390 ng/mL and the level at 3 h (both, cynomolgus monkey, in vivo, iv, monkey 2h i.v. infusion, replicate 2) was 5440 ng/mL. The level at 3 h (both, cynomolgus monkey, in vivo, iv, monkey 2h i.v. infusion, replicate 3) was 4440 ng/mL, the level at 3 h (both, cynomolgus monkey, in vivo, iv, monkey 2h i.v. infusion, replicate 4) was 6120 ng/mL and the level at 4 h [5] was 3590 ng/mL. It also gave a level at 4 h [6] of 3930 ng/mL, a level at 4 h [7] of 2240 ng/mL and a level at 4 h [8] of 2830 ng/mL. It also gave a level at 8 h [5] of 1270 ng/mL, a level at 8 h [6] of 1290 ng/mL and a level at 8 h [7] of 2720 ng/mL. The level at 8 h [8] was 2460 ng/mL, the level at 12 h [7] was 860 ng/mL and the level at 12 h [8] was 802 ng/mL. The “Cross species PK, concentration (Fig 6 source data)” value (“Cross species PK, concentration” below) (minipig 2h i.v. infusion, time 0.5 h, replicate 2) was 6298, the “Cross species PK, concentration” value (minipig 2h i.v. infusion, time 1 h, replicate 1) was 4846 and the “Cross species PK, concentration” value (minipig 2h i.v. infusion, time 2 h, replicate 1) was 7751. For the same molecule, the “Cross species PK, concentration” value (minipig 2h i.v. infusion, time 2 h, replicate 2) was 9612, the “Cross species PK, concentration” value (monkey 2h i.v. infusion, time 0.5 h, replicate 1) was 6780 and the “Cross species PK, concentration” value (monkey 2h i.v. infusion, time 1 h, replicate 4) was 15900. The “Cross species PK, concentration” value (monkey 2h i.v. infusion, time 2 h, replicate 1) was 8610, the “Cross species PK, concentration” value (monkey 2h i.v. infusion, time 2 h, replicate 2) was 11100 and the “Cross species PK, concentration” value (monkey 2h i.v. infusion, time 2 h, replicate 3) was 21300. For the same molecule, the “Cross species PK, concentration” value (monkey 2h i.v. infusion, time 2 h, replicate 4) was 6780.
